Like-named read-outs stand apart in the source and are kept apart here.
Legend:
[1] = test system: pericytes stimulated by PACAP; assay: inhibition of PACAP-induced relaxation of pericytes on silicone substrate; assay type: cell-based
Method: The contractile state of the pericyte was quantified by counting the number of wrinkles (N) and the length of each wrinkle (l) in the thin shin sheet of silicone. From these observations an index of contractility (Ci) was developed from […]. An experiment to determine the effect of vasoactive agents was conducted by first quantifying Ci with the pericyte in physiological buffer (“control”). The Ci was quantified after exposing the pericytes to a vasoactive agent and allowing the pericyte to reach a steady-state level of contractility, which usually took 10 minutes. The effect of the vasoactive agent was determined by dividing by the Ci in the control condition and multiplying by 100 to obtain an index of effect (Ie,%) that was either less than 100 (pericyte relaxed relative to control) or greater than 100 (pericyte contracted relative to control). As a further control, incubations with buffer alone for the complete duration of exposure to each vasoactive agent were performed in conjunction with each experiment.
The present inventors further identified protein kinase A (PKA) as being affected by the increase in cAMP following the binding of PACAP or VIP. For this purpose cells were grown on silicone substrate and contacted by a 10^−8 M concentration of PACAP.
The present inventors have also shown that the relaxing effect of PACAP on pericyte contraction was in part mediated by the intracellular pathway that mobilises Ca^2+ from intracellular stores.

retinal pericytes = assay: cells; settings: for effect on contractile state of retinal pericytes (in words): pericytes on silicone substrate, 10 minutes per concentration
Method: A small volume of dimethylpolysiloxane (Sigma Chemical Co.) of either 60,000 cps (DMPS-60M) or 12,500 cps (DMPS-12M) viscosity was applied to 12 mm diameter glass cover slips. In some cases an intermediate viscosity dimethylpolysiloxane (30,000 cps) was prepared by blending 54% by weight of 60,000 cps dimethylpolysiloxane with 46% by weight of 12,500 cps dimethylpolysiloxane. The coated cover-slip was heated for 2 seconds using a Bunsen burner to induce cross-linking of the surface of the dimethylpolysiloxane and formation of a thin silicone rubber sheet bonded to the cover slip. After preparation, the cover slips were placed in 24-well tissue culture dishes and sterilised by UV irradiation overnight.
Pericytes from primary cultures (first passage) were plated on the cover slips in DMEM supplemented with 10% FCS.
The response of the cells to the antagonists was evaluated using phase contrast microscopy at room temperature. […] Cells were identified as relaxed when the tension wrinkles associated with them diminished in size, and completely relaxed when the wrinkles disappeared. Conversely, a pericyte contracted when there was an increase in the number and length of the wrinkles associated with the pericyte. During each experiment, an image of the pericytes was captured (videocamera and framegrabber) by the computer every minute. The wrinkles were analysed after the experiment from these captured images.
In each of the experiments, the length of each clearly discerned wrinkle associated with the cell was measured 3 times, and the average of the lengths was tabulated. The two ends of a wrinkle were determined by the contrast difference from the background on the picture. The contrast settings on the computer, videocamera or framegrabber were set at the commencement of an experiment and then not changed during the course of an experiment. Similarly, the focus of the microscope was set at the commencement of the experiment and then not changed during the course of an experiment. The depth (level) of solution in the bath was also kept constant, by aspirating and injecting each new solution at the same rate. Thus the only change in the image of the wrinkle (contrast, length) was due to the tension induced in the silicone substrate by the pericyte. The wrinkles during each experimental condition were counted from the photographs with help of a Zeiss videoplan.
The contractile state of the pericyte was quantified by counting the number of wrinkles (N) and the length of each wrinkle (l) in the thin shin sheet of silicone. From these observations an index of contractility (Ci) was developed from […]. An experiment to determine the effect of vasoactive agents was conducted by first quantifying Ci with the pericyte in physiological buffer (“control”). […] As a further control, incubations with buffer alone for the complete duration of exposure to each vasoactive agent were performed in conjunction with each experiment.
For this purpose cells were grown on silicone rubber. On the day of experiment the cells were rinsed with HEPES-buffered solution for 20 min at room temperature. Then the pericytes were exposed to norepinephrine (N5785, Sigma, USA) at different concentrations (10^−6M, 10^−5M, 10^−4 M) by a rapid exchange of the entire solution. The pericytes were exposed to each new drug concentration for a total of 10 minutes, with an image of the pericytes taken every 1 min.

Compound: Nc1ncnc2c1ncn2[C@@H]1O[C@@H]2COP(O)(=S)O[C@H]2[C@H]1O (single isomer, unassigned) [Rp-cAMPS, adenosine 3′,5′-cyclic monophosphothioate, Rp-isomer]
- EC50 ([1]; 10^−8 M PACAP, 10, 30, 100 μM added sequentially, 10 minutes each, FIG. 6, read-out: EC50 of inhibition of the relaxing effect of PACAP): 26 µM

Compound: O=S(=O)(NCCNCC=Cc1ccc(Br)cc1)c1cccc2cnccc12 [H-89, N-(2-[p-bromocinnamylamino]-ethyl)-5-isoquinolinesulfonamid-e]
- effect on the relaxing effect of PACAP ([1]; 10^−8 M PACAP, inhibitor at 0.3 μM): inhibited the relaxing effect

Compound: O=C(O)c1ccccc1Nc1ccccc1 [N-phenylanthranilic acid]
- effect on contractile state of retinal pericytes (in words) (retinal pericytes): can influence the contractile state of retinal pericytes

Compound: NC[C@H](O)c1ccc(O)c(O)c1 [NE, norepinephrine]
- effect on contractile state of retinal pericytes (in words) (retinal pericytes): contracting in a dose-dependent manner
- EC50 (retinal pericytes; read-out: EC50 of pericyte contraction of silicone substrate): 8 µM
- concentration causing contraction of pericytes (retinal pericytes; retinal pericytes, FIG. 3): greater than 10^−6 M
- concentration giving maximum enhancement of contractile state of the pericytes (retinal pericytes; retinal pericytes, FIG. 3): 10^−4 M

Compound: C[C@@H](C(=O)O)c1ccc(-c2ccccc2)c(F)c1 [R-flurbiprofen, flurbiprofen]
- effect on contractile state of retinal pericytes (in words) (retinal pericytes): can influence the contractile state of retinal pericytes

Compound: COc1ccc2c(c1)CC[C@@H]1[C@@H]2CC[C@]2(C)[C@@H](NCCCCCCN3C(=O)C=CC3=O)CC[C@@H]12 [U73122, 1-[6-([(17β)-3-Methoxyestra-1,3,5(10)-trien-17-yl]amino)hexyl]-1H-py-rrole-2,2-dione]
- effect on PACAP-induced relaxation of pericytes ([1]; inhibitor at 10 μM): antagonist of the PACAP-induced relaxation of pericytes

Compound: CC[C@H](C)[C@H](NC(=O)[C@H](CO)NC(=O)[C@H](CC(N)=O)NC(=O)[C@H](CC(C)C)NC(=O)[C@H](Cc1ccc(O)cc1)NC(=O)[C@H](CCCCN)NC(=O)[C@H](CCCCN)NC(=O)[C@@H](NC(=O)[C@H](C)NC(=O)[C@H](CCSC)NC(=O)[C@H](CCC(N)=O)NC(=O)[C@H](CCCCN)NC(=O)[C@H](CCCNC(=N)N)NC(=O)[C@H](CC(C)C)NC(=O)[C@H](CCCNC(=N)N)NC(=O)[C@@H](NC(=O)[C@H](Cc1ccc(O)cc1)NC(=O)[C@H](CC(N)=O)NC(=O)[C@H](CC(=O)O)NC(=O)[C@@H](NC(=O)[C@H](Cc1ccccc1)NC(=O)[C@@H](NC(=O)[C@H](C)NC(=O)[C@H](CC(=O)O)NC(=O)[C@H](CO)NC(=O)[C@@H](N)Cc1c[nH]cn1)C(C)C)[C@@H](C)O)[C@@H](C)O)C(C)C)C(=O)N[C@@H](CC(C)C)C(=O)N[C@@H](CC(N)=O)C(N)=O [VIP, vasoactive intestinal polypeptide]
- EC50 (retinal pericytes; read-out: EC50 concentration, effect on contractility of pericytes (relaxation), contractility index below 100 = relaxed, data averaged from cells, FIGS. 4, 5): 0.048 µM

Compound: O=C(O)c1ccccc1Nc1cccc(C(F)(F)F)c1 [flufenamic acid]
- effect on contractile state of retinal pericytes (in words) (retinal pericytes): can influence the contractile state of retinal pericytes

Source: patent publication US20110206612A1, “NOVEL SCREENS TO IDENTIFY AGENTS THAT MODULATE RETINAL BLOOD VESSEL FUNCTION AND PERICYTE FUNCTION AND DIAGNOSTIC AND THERAPEUTIC APPLICATION THEREFOR” (UNIVERSITY OF TECHNOLOGY, SYDNEY, priority 2002, published 2011)
